# Read-outs that look alike come from different tables or passages of the source.
# What was measured:
# [1] = no concentration stated
# [2] = cited from earlier work
compound,measurement,setting,value
COc1cc(Cc2cnc(N)nc2N)cc(OC)c1OC [Trimethoprim],solubility in ethanol (qualitative),[1],only slightly soluble
same,solubility in propylene glycol (qualitative),[1],soluble
same,solubility in water (qualitative),[1],almost completely insoluble
same,solubility,[2]; 95% Ethanol,0.81 g/100 mL
same,solubility,[2]; Absolute Ethanol,0.35 g/100 mL
same,solubility,[2]; Acetone,0.35 g/100 mL
same,solubility,[2]; Benzene,0.002 g/100 mL
same,solubility,[2]; Benzyl Alcohol,7.29 g/100 mL
same,solubility,[2]; Carbon Tetra-Chloride,0.002 g/100 mL
same,solubility,[2]; Choroform,1.82 g/100 mL
same,solubility,[2]; Diethyl Ether,0.00 g/100 mL
same,solubility,[2]; Dimethyl Acetamide,13.86 g/100 mL
same,solubility,[2]; Methanol,1.21 g/100 mL
same,solubility,[2]; Petroleum Ether,0.02 g/100 mL
same,solubility,[2]; Propylene Glycol,2.57 g/100 mL
same,solubility,[2]; Water,0.04 g/100 mL

# From US10335518B2, “Catheter locking formulation and method to prepare same” (priority 2013, dated 2019)
